Assay results as given in patent publication US20180078525A1, “COMPOSITION FOR GROWTH PROMOTION, CONTAINING COUMARIC ACID AS ACTIVE INGREDIENT” (KOREA MEDICINE RESEARCH INSTITUTE, INC, priority 2014, published 2018).

Tests used:
Sprague-Dawley rats [1] = assay: Analysis of growth plate (heights of proliferative and hypertrophic zones); assay type: in vivo, rat; conditions: after 10-day administration; for height of the proliferative zone of the growth plate: average, control group 0.77 mm; for height of the hypertrophic zone of the growth plate: control group 1.10 mm
Method: In a control group, saline was injected. […] To assess the growth effect of coumaric acid, the growth plate of each rat was analyzed. In Experimental Example <1-1>, after the 10-day administration was completed, right and left tibias (shinbones) were extracted from the experimental group and the control groups according to this invention, all the muscles, fat and ligaments attached to bone tissue were removed, and then the resulting specimen was stored in 70% alcohol, demineralized, and then dehydrated. Afterward, the resulting specimen was washed with xylene, and then put into a paraffin block. Subsequently, the specimen was cut to a thickness of 4 μm, and then the heights of the proliferative zone and the hypertrophic zone in the growth plate were measured using a BX50 microscope (Olympus).

cartilage cells = assay: Proliferation of cartilage cells in proximal tibia (BrdU staining); assay type: in vivo, rat; conditions: rats, after 10-day administration, BrdU 30 mg/kg i.p., 2 hours before autopsy; control group 0.13%
Method: (§1) In a control group, saline was injected. […] The drug administered to each group is as follows:
To confirm whether the effect of coumaric acid on bone growth is caused by the proliferation of cartilage cells, cartilage cells were observed. In Experimental Example <1-1>, after the 10-day administration was completed, rats of the experimental group and the control groups according to this invention were intraperitoneally administered with a dose of 30 mg/kg of 5-bromo-2′-deoxyuridine (BrdU) on the day of the experiment. Two hours later, autopsies were carried out to extract legs, and then the legs were stored in 4% PFA for 24 hours. Following embedding and sectioning, cartilage cells which were stained using a BrdU staining kit (Invitrogen, Carlsbad, Calif., USA) were observed.

growth hormone = assay: Growth hormone levels in blood (Growth Hormone Rat ELISA Kit); assay type: in vivo; conditions: rat serum, after 10-day administration; control group 3.97 ng/ml
Method: as §1
To confirm whether coumaric acid affects the secretion level of the growth hormone, a growth hormone level in the blood of each rat was measured. […] The measurement of the growth hormone levels were carried out using a Growth Hormone Rat ELISA Kit (Life Technologies, KRC5311).

IGF-1 = IGF-1 protein levels in blood (IGF1 ELISA Kit); assay type: in vivo; conditions: rat serum, after 10-day administration; control group 0.84 mg/kg
Method: as §1
To confirm whether coumaric acid affects the secretion levels of IGF-1, […], IGF-1 protein levels were measured. In Experimental Example <1-1>, after the 10-day administration was completed, the rats of the experimental group and the control groups according to this invention were anesthetized on the day of the experiment, and then blood was extracted therefrom using a syringe and centrifuged to obtain serum. The measurement of the IGF-1 levels was carried out using an IGF1 ELISA Kit (Abcam, ab100695).

[2] = Changes in the body weight of laboratory animals; conditions: male Sprague-Dawley rats, 10-day administration; coumaric acid 100 mg/kg oral, growth hormone 20 μg/kg s.c., once daily
Method: Three-week-old male Sprague-Dawley rats were purchased and acclimated for three days. A breeding environment was altered to a 24-hour pattern, a light/dark cycle was maintained at 12-hour intervals, and antibiotic-free normal solid feed was used. In a control group, saline was injected. In a positive control group, Eutropin Injection (LG Bioscience Korea) was subcutaneously injected at a dose of 20 μg/kg once a day. The coumaric acid of this invention was administered to the oral cavity of all rats of a coumaric acid group, once daily.
After feeding and administering the coumaric acid to the rats for 10 days, autopsies were carried out to confirm the following content.
The measurement was carried out twice a week. The measured values were statistically analyzed to calculate mean±standard deviation.

Sprague-Dawley rats [3] = assay: Total tibial length by X-ray radiography; assay type: in vivo, rat; conditions: after 10-day administration, coumaric acid 100 mg/kg oral, growth hormone 20 μg/kg s.c.
Method: as §1
To assess the effect of coumaric acid on growth promotion, total tibial length of rats were measured. In Experimental Example <1-1>, after the 10-day administration was completed, right and left tibias (shinbones) were extracted from the control groups and the coumaric acid-fed experimental group according to this invention, all the muscles, fat and ligaments attached to bone tissue were removed, and then the resulting specimen was stored in 70% alcohol, followed by radiographic analysis using an X-ray imaging instrument (OM-FORTE-10121, DK Medical Systems). For the analysis, 55 kV, […] X-ray sources were used. The total tibial length was measured by X-ray radiography.

Compound	height of the proliferative zone of the growth plate (Sprague-Dawley rats [1]) [mm]	height of the hypertrophic zone of the growth plate (Sprague-Dawley rats [1]) [mm]	ratio of BrdU-labeled cells with respect to total cells (cartilage cells) [%]	growth hormone level in blood (growth hormone) [ng/mL]	IGF-1 protein level (IGF-1) [mg/kg]	body weight vs control group [2]	total tibial length vs control group (Sprague-Dawley rats [3])
O=C(O)/C=C/c1ccc(O)cc1 [coumaric acid]	0.98	1.27	0.18	7.62	1.23	almost no difference	–
growth hormone: positive control: Eutropin Injection (LG Bioscience Korea), growth hormone, subcutaneously injected at 20 μg/kg once a day	1.13	1.44	0.18	11.89	1.31	–	greater than the control group
